What was measured:
Assay type in all cases: cell-based
[1] = system: neuron cells (iPS Academia Japan) that were differentiation of iPS cells; assay: Motion vibration of neuron cells, FFT power spectra; conditions: for spontaneous membrane potential vibration of the neural cells: confirmed by the vibration characteristics of the motion vibration
Protocol: Effects of GABA and L-Glu administered on the neuron cells were evaluated. The GABA or the L-Glu was administered to incubation liquid of the neuron cells (iPS Academia Japan) that were differentiation of iPS cells. Each neuron cell was image-captured at 2 flame/sec for 1 minute to provide each cell image.
In each cell image, the motion vibration was extracted using the image range including one neuron cell as the extraction range. FIG. 23(a) is a graph of the motion vibration extracted from the cell image of the neural cells to which the GABA is administrated. FIG. 23(b) is a graph of the motion vibration extracted from the cell image of the neural cells to which the L-Glu is administrated.
Then, the FFT analysis was applied to the motion vibration to calculate power spectra. FIG. 24(a) is a graph of power spectrum calculated from the motion vibration (FIG. 23(a)) of the neuron cells to which the GABA is administered. FIG. 24(b) is a graph of power spectrum calculated from the motion vibration (FIG. 23(b)) of the neuron cells to which the L-Glu is administered.

[2] = system: neuron cells (iPS Academia Japan) that were differentiation of iPS cells; assay: Fluorescence intensity vibration (Ca2+ imaging with Fluo8) of neuron cells, FFT power spectra; conditions: for spontaneous membrane potential vibration of the neural cells: confirmed by the vibration characteristics of the fluorescence intensity vibration
Protocol: Effects of GABA and L-Glu on the neuron cells and the neuron cell network were evaluated using the fluorescence intensity vibration. The GABA is a physiological active substance that gives inhibitory stimulation to the neuron cells. The L-Glu gives exciting stimulation.
Fluo8 (fluorescent labeling) used in Ca^2+ imaging was entrained in the neuron cells (iPS Academia Japan) that were differentiation of iPS cells. The GABA or the L-Glu was administered to incubation liquid. Fluorescence of the Fluo8 generated from each neuron cell was image-captured at 2 flame/sec for 1 minute to provide each cell image.
The fluorescence intensity vibration (vibration information) was extracted from each cell image, taking the image range including one neuron cell as the extraction range. FIG. 9(a) is a graph of fluorescence intensity vibration extracted from the cell image of the neuron cells to which the GABA is administered. FIG. 9(b) is a graph of fluorescence intensity vibration extracted from the cell image of the neuron cells to which the L-Glu is administered.
Then, the FFT analysis was applied to fluorescence intensity vibration to calculate power spectra (vibration characteristics). FIG. 10(a) is a graph of power spectrum calculated from the fluorescence intensity vibration ([…]) of the neuron cells to which the GABA is administered. FIG. 10(b) is a graph of power spectrum calculated from the fluorescence intensity vibration ([…]) of the neuron cells to which the L-Glu is administered.

[3] = system: neural cells derived from iPS cells where a sufficient neural cell network was formed; assay: Evaluation of cytotoxicity by motion vibration; conditions: whole image as extraction range; 5 μm of memantine with 500 nM or 5000 nM of Aβ peptide; incubated for five days; FIG. 28
Protocol: Effects of a cytotoxic substance administered on the neuron cells were evaluated using the motion vibration of the cells. As a cytotoxic model, the cytotoxicity of Aβ peptide considered as a cause of the Alzheimer disease and a neuroprotective action of an anti-alzheimer's disease drug, i.e., memantine were evaluated. As the cytotoxicity of Aβ peptide, there are a synapse failure by acting on synapses and a cell failure entrained in the cells. The cell group of the neural cells derived from iPS cells where a sufficient neural cell network was formed was prepared. A predetermined amount of Aβ peptide or Aβ peptide and memantine was administered to each cell group to incubate for five days. After five days, the cell image of each cell group was captured to extract the motion vibration from the whole image and each cell as the extraction range and the vibration characteristics were calculated. FIGS. 27(a) to (f) are graphs of the vibration characteristics of the motion vibration extracted from the extraction range including the whole image. […] FIG. 28 is a graph of average values of the vibration power extracted from the motion vibration in each cell group shown in FIGS. 27(a) to (e) in each pixel included in the extraction range. […] On the other hand, when memantine was administered, the vibration power is not decreased. […]

[4] = extraction range including one neuron cell, compared with neuron cells to which the L-Glu is administered, FIGS. 24(a) and 24(b)
[5] = extraction range including one neuron cell, compared with neuron cells to which the L-Glu is administered, FIGS. 10(a) and 10(b)

## NCCCC(=O)O [GABA]
[1]
  spontaneous membrane potential vibration of the neural cells: changed
[1]; [4]
  amplitude of the motion vibration: greater
  frequency of the motion vibration: lower
[2]
  spontaneous membrane potential vibration of the neural cells: changed
[2]; [5]
  amplitude of the fluorescence intensity vibration: greater
  frequency of the fluorescence intensity vibration: lower

## N[C@@H](CCC(=O)O)C(=O)O [L-Glu]
[1]
  spontaneous membrane potential vibration of the neural cells: changed
[2]
  spontaneous membrane potential vibration of the neural cells: changed

## CC12CC3CC(C)(C1)CC(N)(C3)C2 [memantine]
[3]
  vibration power of the cell group (motion vibration, average values in each pixel): not decreased

Source: patent US10209236B2, “Cell analyzer system, cell analyzer program, and cell analyzing method” (Sony Corporation, priority 2012, dated 2019)
